Source: patent publication US20240182513A1, “SEPARATION OF METAL IONS FROM A SAMPLE USING GLYCOLIPIDS” (ARIZONA BOARD OF REGENTS ON BEHALF OF THE UNIVERSITY OF …, priority 2021, published 2024)

How the values were obtained:
[1] = Example 2.1 rhamnolipid precipitation, filtration, centrifugation: lead; conditions: for Treatment 2: Rhamnolipid and Filtration Cf / Treatment 3: Rhamnolipid and Centrifugation Cc / Treatment 1: Rhamnolipid Only Cr: lead concentration after treatment; for Treatment 1: Rhamnolipid Only (Rr) efficiency of removal / Treatment 2: Rhamnolipid and Filtration (Rf) efficiency of removal / Treatment 3: Rhamnolipid and Centrifugation (Rc) efficiency of removal: lead
Experimental: (§1) Structural variants of synthetic glycolipids were used to show the effect of the number and length of the hydrophobic tail(s) on rhamnolipid as a chemical precipitant. […] Solutions (10 mM) were made using nanopure water (≥18 MΩ-cm) then adjusted to a pH of 6.9±0.05 with HNO3 and NaOH. These solutions were made in advance and stored in the cold room for up to one month. They were brought to room temperature before each experiment.
(§2) Three metals were tested for binding with rhamnolipid. Lead as […] (Fisher Scientific, Waltham, MA, 99% purity), was chosen to represent a metal with high rhamnolipid-metal conditional stability constant; lanthanum as La(NO3)3 6(H2O) (Sigma-Aldrich, St. Louis, MO, 99.99% purity) was chosen as a representative REE; and magnesium as Mg(NO3)2 6(H2O) (Sigma-Aldrich, St. Louis, MO, 99% purity) was chosen to represent a metal with a low rhamnolipid-metal conditional stability constant (Hogan et al., 2017). Metal solutions (5 mM) were made using nanopure water (≥18 MΩ-cm) in 20 ml glass scintillation vials. All solutions were used within 15 min to ensure minimal adsorption to the glass vial.
(§3) Three glycolipid-based treatments were evaluated to remove metal from solution: (1) the addition of glycolipid with no further treatment (gravitational precipitation), (2) the addition of a glycolipid followed by filtration or (3) the addition of a glycolipid followed by centrifugation. Each metal (Pb, La, and Mg) was evaluated separately with each of the glycolipid structures. For each experiment, a metal solution was mixed with a glycolipid solution in a 1.7 ml reaction tube at varying molar ratios of glycolipid to metal: 0:1 (glycolipid-free control), 2:1, 5:1, and 10:1. The reactions were mixed in the order of nanopure water (≥18 MΩ-cm), glycolipid solution (10 mM), then metal solution (5 mM). The metal and glycolipid solutions were continuously stirred as they were aliquoted into the reaction tubes. The experiment was performed in triplicate.
(§4) The reaction tubes were mixed overnight (16 to 24 h) and then three samples were collected from each tube to measure the effect of each of the three treatments: a glycolipid only treatment sample, a filtration treatment sample, and a centrifugation treatment sample. Briefly, for the glycolipid only treatment samples all tubes were vortexed for approximately 5 sec immediately before removing 0.1 ml into a dilution tube of 2% trace metal grade nitric acid (12 to 14 ml) to minimize the settling of particles. For the filtration samples each reaction tube was vortexed for 5 sec and then a 0.6 ml aliquot was collected with a 1 ml syringe. A GHP acrodisc disk filter (hydrophilic polypropylene membrane, 0.45 μm pore size, 25 mm disc diameter) from Pall Life Sciences (Port Washington, New York) was then placed onto the end of the syringe and the solution was pushed through the filter. The void space in the disk filter holds approximately 0.5 ml, therefore around 0.1 ml of filtrate was collected into a dilution tube. For the centrifugation sample, the remaining solution was centrifuged at 10,000 RCF for 15 min. Approximately 0.1 ml of the supernatant was aliquoted into a dilution tube. Following collection, all samples were taken for metal analysis using ICP-MS.

[2] = Example 2.1 rhamnolipid precipitation, filtration, centrifugation: lanthanum; conditions: for Treatment 2: Rhamnolipid and Filtration Cf / Treatment 3: Rhamnolipid and Centrifugation Cc / Treatment 1: Rhamnolipid Only Cr: lanthanum concentration after treatment; for Treatment 1: Rhamnolipid Only (Rr) efficiency of removal / Treatment 2: Rhamnolipid and Filtration (Rf) efficiency of removal / Treatment 3: Rhamnolipid and Centrifugation (Rc) efficiency of removal: lanthanum
Experimental: as §1, §2, §3, §4

[3] = Example 2.1 rhamnolipid precipitation, filtration, centrifugation: magnesium; conditions: for Treatment 2: Rhamnolipid and Filtration Cf / Treatment 3: Rhamnolipid and Centrifugation Cc / Treatment 1: Rhamnolipid Only Cr: magnesium concentration after treatment; for Treatment 1: Rhamnolipid Only (Rr) efficiency of removal / Treatment 2: Rhamnolipid and Filtration (Rf) efficiency of removal / Treatment 3: Rhamnolipid and Centrifugation (Rc) efficiency of removal: magnesium
Experimental: as §1, §2, §3, §4

[4] = molar ratio rhamnolipid:lead 2 to 1
[5] = molar ratio rhamnolipid:lanthanum 2 to 1
[6] = molar ratio rhamnolipid:magnesium 2 to 1

CCCCCCCCCCCCCCCC(CC(=O)O)OC1O[C@@H](C)[C@H](O)[C@@H](O)[C@H]1O (some centres unmarked) [Rha C18]
Treatment 2: Rhamnolipid and Filtration Cf ([1]; molar ratio 2 to 1): 0.027 ± 0.001 mmol/L
Treatment 3: Rhamnolipid and Centrifugation Cc ([1]; molar ratio 2 to 1): 0.132 ± 0.001 mmol/L
Treatment 1: Rhamnolipid Only Cr ([1]; molar ratio 5 to 1): 0.044 ± 0.008 mmol/L
Treatment 2: Rhamnolipid and Filtration Cf ([1]; molar ratio 5 to 1): 0.000 ± 0.002 mmol/L
Treatment 3: Rhamnolipid and Centrifugation Cc ([1]; molar ratio 5 to 1): 0.005 ± 0.002 mmol/L
Treatment 1: Rhamnolipid Only Cr ([1]; molar ratio 10 to 1): 0.255 ± 0.015 mmol/L
Treatment 2: Rhamnolipid and Filtration Cf ([1]; molar ratio 10 to 1): 0.000 ± 0.001 mmol/L
Treatment 3: Rhamnolipid and Centrifugation Cc ([1]; molar ratio 10 to 1): 0.014 ± 0.001 mmol/L
Treatment 1: Rhamnolipid Only Cr [1, 4]: 0.123 ± 0.002 mmol/L
Treatment 1: Rhamnolipid Only (Rr) efficiency of removal ([1]; molar ratio 2 to 1): (54.8%)
Treatment 2: Rhamnolipid and Filtration (Rf) efficiency of removal ([1]; molar ratio 2 to 1): (90.1%)
Treatment 3: Rhamnolipid and Centrifugation (Rc) efficiency of removal ([1]; molar ratio 2 to 1): (51.6%)
Treatment 1: Rhamnolipid Only (Rr) efficiency of removal ([1]; molar ratio 5 to 1): (83.9%)
Treatment 2: Rhamnolipid and Filtration (Rf) efficiency of removal ([1]; molar ratio 5 to 1): (99.9%)
Treatment 3: Rhamnolipid and Centrifugation (Rc) efficiency of removal ([1]; molar ratio 5 to 1): (98.1%)
Treatment 1: Rhamnolipid Only (Rr) efficiency of removal ([1]; molar ratio 10 to 1): (6.2%)
Treatment 2: Rhamnolipid and Filtration (Rf) efficiency of removal ([1]; molar ratio 10 to 1): (99.9%)
Treatment 3: Rhamnolipid and Centrifugation (Rc) efficiency of removal ([1]; molar ratio 10 to 1): (94.7%)
Treatment 2: Rhamnolipid and Filtration Cf ([2]; molar ratio 2 to 1): 0.116 ± 0.029 mmol/L
Treatment 3: Rhamnolipid and Centrifugation Cc ([2]; molar ratio 2 to 1): 0.228 ± 0.013 mmol/L
Treatment 1: Rhamnolipid Only Cr ([2]; molar ratio 5 to 1): 0.121 ± 0.009 mmol/L
Treatment 2: Rhamnolipid and Filtration Cf ([2]; molar ratio 5 to 1): 0.001 ± 0.002 mmol/L
Treatment 3: Rhamnolipid and Centrifugation Cc ([2]; molar ratio 5 to 1): 0.088 ± 0.003 mmol/L
Treatment 1: Rhamnolipid Only Cr ([2]; molar ratio 10 to 1): 0.331 ± 0.024 mmol/L
Treatment 2: Rhamnolipid and Filtration Cf ([2]; molar ratio 10 to 1): 0.004 ± 0.001 mmol/L
Treatment 3: Rhamnolipid and Centrifugation Cc ([2]; molar ratio 10 to 1): 0.051 ± 0.010 mmol/L
Treatment 1: Rhamnolipid Only Cr [2, 5]: 0.249 ± 0.009 mmol/L
Treatment 1: Rhamnolipid Only (Rr) efficiency of removal ([2]; molar ratio 2 to 1): (16.5%)
Treatment 2: Rhamnolipid and Filtration (Rf) efficiency of removal ([2]; molar ratio 2 to 1): (61.1%)
Treatment 3: Rhamnolipid and Centrifugation (Rc) efficiency of removal ([2]; molar ratio 2 to 1): (23.4%)
Treatment 1: Rhamnolipid Only (Rr) efficiency of removal ([2]; molar ratio 5 to 1): (59.4%)
Treatment 2: Rhamnolipid and Filtration (Rf) efficiency of removal ([2]; molar ratio 5 to 1): (99.5%)
Treatment 3: Rhamnolipid and Centrifugation (Rc) efficiency of removal ([2]; molar ratio 5 to 1): (70.6%)
Treatment 2: Rhamnolipid and Filtration (Rf) efficiency of removal ([2]; molar ratio 10 to 1): (98.8%)
Treatment 3: Rhamnolipid and Centrifugation (Rc) efficiency of removal ([2]; molar ratio 10 to 1): (82.8%)
Treatment 2: Rhamnolipid and Filtration Cf ([3]; molar ratio 2 to 1): 0.169 ± 0.015 mmol/L
Treatment 3: Rhamnolipid and Centrifugation Cc ([3]; molar ratio 2 to 1): 0.216 ± 0.002 mmol/L
Treatment 1: Rhamnolipid Only Cr ([3]; molar ratio 5 to 1): 0.215 ± 0.002 mmol/L
Treatment 2: Rhamnolipid and Filtration Cf ([3]; molar ratio 5 to 1): 0.056 ± 0.012 mmol/L
Treatment 3: Rhamnolipid and Centrifugation Cc ([3]; molar ratio 5 to 1): 0.141 ± 0.001 mmol/L
Treatment 1: Rhamnolipid Only Cr ([3]; molar ratio 10 to 1): 0.304 ± 0.001 mmol/L
Treatment 2: Rhamnolipid and Filtration Cf ([3]; molar ratio 10 to 1): 0.017 ± 0.002 mmol/L
Treatment 3: Rhamnolipid and Centrifugation Cc ([3]; molar ratio 10 to 1): 0.107 ± 0.004 mmol/L
Treatment 1: Rhamnolipid Only Cr [3, 6]: 0.265 ± 0.002 mmol/L
Treatment 1: Rhamnolipid Only (Rr) efficiency of removal ([3]; molar ratio 2 to 1): (12.1%)
Treatment 2: Rhamnolipid and Filtration (Rf) efficiency of removal ([3]; molar ratio 2 to 1): (37.0%)
Treatment 3: Rhamnolipid and Centrifugation (Rc) efficiency of removal ([3]; molar ratio 2 to 1): (20.5%)
Treatment 1: Rhamnolipid Only (Rr) efficiency of removal ([3]; molar ratio 5 to 1): (19.5%)
Treatment 2: Rhamnolipid and Filtration (Rf) efficiency of removal ([3]; molar ratio 5 to 1): (79.0%)
Treatment 3: Rhamnolipid and Centrifugation (Rc) efficiency of removal ([3]; molar ratio 5 to 1): (47.4%)
Treatment 2: Rhamnolipid and Filtration (Rf) efficiency of removal ([3]; molar ratio 10 to 1): (93.7%)
Treatment 3: Rhamnolipid and Centrifugation (Rc) efficiency of removal ([3]; molar ratio 10 to 1): (60.1%)

CCCCCCCCCCCC(CC(=O)O)OC1O[C@@H](C)[C@H](O)[C@@H](O)[C@H]1O (some centres unmarked) [Rha C14]
Treatment 2: Rhamnolipid and Filtration Cf ([1]; molar ratio 2 to 1): 0.031 ± 0.030 mmol/L
Treatment 3: Rhamnolipid and Centrifugation Cc ([1]; molar ratio 2 to 1): 0.194 ± 0.006 mmol/L
Treatment 1: Rhamnolipid Only Cr ([1]; molar ratio 5 to 1): 0.315 ± 0.004 mmol/L
Treatment 2: Rhamnolipid and Filtration Cf ([1]; molar ratio 5 to 1): 0.000 ± 0.000 mmol/L
Treatment 3: Rhamnolipid and Centrifugation Cc ([1]; molar ratio 5 to 1): 0.315 ± 0.006 mmol/L
Treatment 1: Rhamnolipid Only Cr ([1]; molar ratio 10 to 1): 0.311 ± 0.008 mmol/L
Treatment 2: Rhamnolipid and Filtration Cf ([1]; molar ratio 10 to 1): 0.001 ± 0.001 mmol/L
Treatment 3: Rhamnolipid and Centrifugation Cc ([1]; molar ratio 10 to 1): 0.327 ± 0.001 mmol/L
Treatment 1: Rhamnolipid Only Cr [1, 4]: 0.278 ± 0.011 mmol/L
Treatment 1: Rhamnolipid Only (Rr) efficiency of removal ([1]; molar ratio 2 to 1): (13.3%)
Treatment 2: Rhamnolipid and Filtration (Rf) efficiency of removal ([1]; molar ratio 2 to 1): (90.2%)
Treatment 3: Rhamnolipid and Centrifugation (Rc) efficiency of removal ([1]; molar ratio 2 to 1): (39.4%)
Treatment 1: Rhamnolipid Only (Rr) efficiency of removal ([1]; molar ratio 5 to 1): (1.6%)
Treatment 2: Rhamnolipid and Filtration (Rf) efficiency of removal ([1]; molar ratio 5 to 1): (100.0%)
Treatment 3: Rhamnolipid and Centrifugation (Rc) efficiency of removal ([1]; molar ratio 5 to 1): (1.8%)
Treatment 1: Rhamnolipid Only (Rr) efficiency of removal ([1]; molar ratio 10 to 1): (3.0%)
Treatment 2: Rhamnolipid and Filtration (Rf) efficiency of removal ([1]; molar ratio 10 to 1): (99.7%)
Treatment 2: Rhamnolipid and Filtration Cf ([2]; molar ratio 2 to 1): 0.164 ± 0.058 mmol/L
Treatment 3: Rhamnolipid and Centrifugation Cc ([2]; molar ratio 2 to 1): 0.221 ± 0.014 mmol/L
Treatment 1: Rhamnolipid Only Cr ([2]; molar ratio 5 to 1): 0.215 ± 0.024 mmol/L
Treatment 2: Rhamnolipid and Filtration Cf ([2]; molar ratio 5 to 1): 0.044 ± 0.007 mmol/L
Treatment 3: Rhamnolipid and Centrifugation Cc ([2]; molar ratio 5 to 1): 0.094 ± 0.002 mmol/L
Treatment 1: Rhamnolipid Only Cr ([2]; molar ratio 10 to 1): 0.314 ± 0.016 mmol/L
Treatment 2: Rhamnolipid and Filtration Cf ([2]; molar ratio 10 to 1): 0.0 ± 0.000 mmol/L
Treatment 3: Rhamnolipid and Centrifugation Cc ([2]; molar ratio 10 to 1): 0.006 ± 0.001 mmol/L
Treatment 1: Rhamnolipid Only Cr [2, 5]: 0.247 ± 0.034 mmol/L
Treatment 1: Rhamnolipid Only (Rr) efficiency of removal ([2]; molar ratio 2 to 1): (16.9%)
Treatment 2: Rhamnolipid and Filtration (Rf) efficiency of removal ([2]; molar ratio 2 to 1): (44.9%)
Treatment 3: Rhamnolipid and Centrifugation (Rc) efficiency of removal ([2]; molar ratio 2 to 1): (25.8%)
Treatment 1: Rhamnolipid Only (Rr) efficiency of removal ([2]; molar ratio 5 to 1): (27.7%)
Treatment 2: Rhamnolipid and Filtration (Rf) efficiency of removal ([2]; molar ratio 5 to 1): (85.3%)
Treatment 3: Rhamnolipid and Centrifugation (Rc) efficiency of removal ([2]; molar ratio 5 to 1): (68.5%)
Treatment 2: Rhamnolipid and Filtration (Rf) efficiency of removal ([2]; molar ratio 10 to 1): 1.0 (99.9%)
Treatment 3: Rhamnolipid and Centrifugation (Rc) efficiency of removal ([2]; molar ratio 10 to 1): (98.0%)
Treatment 2: Rhamnolipid and Filtration Cf ([3]; molar ratio 2 to 1): 0.147 ± 0.045 mmol/L
Treatment 3: Rhamnolipid and Centrifugation Cc ([3]; molar ratio 2 to 1): 0.292 ± 0.008 mmol/L
Treatment 1: Rhamnolipid Only Cr ([3]; molar ratio 5 to 1): 0.300 ± 0.018 mmol/L
Treatment 2: Rhamnolipid and Filtration Cf ([3]; molar ratio 5 to 1): 0.088 ± 0.042 mmol/L
Treatment 3: Rhamnolipid and Centrifugation Cc ([3]; molar ratio 5 to 1): 0.279 ± 0.016 mmol/L
Treatment 1: Rhamnolipid Only Cr ([3]; molar ratio 10 to 1): 0.302 ± 0.017 mmol/L
Treatment 2: Rhamnolipid and Filtration Cf ([3]; molar ratio 10 to 1): 0.009 ± 0.004 mmol/L
Treatment 3: Rhamnolipid and Centrifugation Cc ([3]; molar ratio 10 to 1): 0.219 ± 0.021 mmol/L
Treatment 1: Rhamnolipid Only Cr [3, 6]: 0.291 ± 0.005 mmol/L
Treatment 2: Rhamnolipid and Filtration (Rf) efficiency of removal ([3]; molar ratio 2 to 1): (45.0%)
Treatment 2: Rhamnolipid and Filtration (Rf) efficiency of removal ([3]; molar ratio 5 to 1): (66.9%)
Treatment 2: Rhamnolipid and Filtration (Rf) efficiency of removal ([3]; molar ratio 10 to 1): (96.6%)
